The source made the active and inactive calls. No cut-off for these calls is given here.

One series relates to Hepatitis B virus. Nature of the series: Antiviral activity against HBV infected in human HepG2-NTCP cells assessed as reduction in HBeAg secretion incubated for 24 hrs followed replacement with fresh medium and measured at day 5 post infection by ELISA. Format: functional, organism-based. (ELISA stands for enzyme-linked immunosorbent assay.)
Series [1] can be described thus: Stability in mouse liver microsomes assessed as half life at 1 uM preincubated for 5 mins followed by NADPH addition and measured upto 60 mins by LC-MS analysis. The class given is ADME, Microsome. As to conditions: time 65 min. For orientation: Microsomes from liver hold many membrane-bound enzymes, among them those of drug oxidation.
A short description of series [2]: Stability in mouse liver microsomes assessed as intrinsic clearance at 1 uM preincubated for 5 mins followed by NADPH addition and measured upto 60 mins by LC-MS analysis. As to conditions: time 65 min, read-out: CLH. The class given is ADME, Microsome.
Series [3] addresses T1, Hepatic sodium/bile acid cotransporter (Homo sapiens, UniProt Q14973).
T1 sequence (Q14973 whole entry): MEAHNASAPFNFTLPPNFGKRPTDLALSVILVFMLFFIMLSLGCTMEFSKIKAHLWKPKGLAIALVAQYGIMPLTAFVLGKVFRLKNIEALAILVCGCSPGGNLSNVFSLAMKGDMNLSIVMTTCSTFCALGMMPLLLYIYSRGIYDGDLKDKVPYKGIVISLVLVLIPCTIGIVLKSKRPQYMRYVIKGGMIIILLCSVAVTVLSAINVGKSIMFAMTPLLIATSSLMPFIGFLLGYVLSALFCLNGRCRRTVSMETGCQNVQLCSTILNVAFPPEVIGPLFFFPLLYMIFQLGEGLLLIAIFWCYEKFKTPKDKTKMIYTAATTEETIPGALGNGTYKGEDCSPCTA
Nature of the series: Inhibition of human NTCP-mediated [3H]-TCA uptake expressed in human HepG2 cells in presence of 20 % FBS. Format: cell-based.

For series [4], the target named is T1, Hepatic sodium/bile acid cotransporter. Nature of the series: Inhibition of human NTCP-mediated [3H]-TCA uptake expressed in human HepG2 cells in presence of 50 % FBS. The class given is cell-based.
For series [5] the target is unchanged. Nature of the series: Inhibition of human NTCP-mediated [3H]-TCA uptake expressed in human HepG2 cells pretreated for 2 hrs followed by [3H]-TCA addition in absence of FBS. Format: cell-based.
Series [6] in a line: Plasma protein binding in human. Format: ADME, cell-free. As to conditions: read-out: PPB.
Series [7] is described as follows: Plasma protein binding in mouse. The class given is ADME, cell-free. As to conditions: read-out: PPB.
The target of series [8] is T1, Hepatic sodium/bile acid cotransporter. Nature of the series: Inhibition of human NTCP-mediated [3H]-TCA uptake expressed in human HepG2 cells in presence of human serum. Format: cell-based.
The next series deals with HepG2. Nature of the series: Inhibition of human NTCP-mediated [3H]-TCA uptake expressed in human HepG2 cells in presence of bovine serum. Format: cell-based. As to conditions: Bos taurus.
Series [9] addresses T2, Hepatic sodium/bile acid cotransporter (Mus musculus, UniProt O08705).
T2 sequence (O08705 whole entry): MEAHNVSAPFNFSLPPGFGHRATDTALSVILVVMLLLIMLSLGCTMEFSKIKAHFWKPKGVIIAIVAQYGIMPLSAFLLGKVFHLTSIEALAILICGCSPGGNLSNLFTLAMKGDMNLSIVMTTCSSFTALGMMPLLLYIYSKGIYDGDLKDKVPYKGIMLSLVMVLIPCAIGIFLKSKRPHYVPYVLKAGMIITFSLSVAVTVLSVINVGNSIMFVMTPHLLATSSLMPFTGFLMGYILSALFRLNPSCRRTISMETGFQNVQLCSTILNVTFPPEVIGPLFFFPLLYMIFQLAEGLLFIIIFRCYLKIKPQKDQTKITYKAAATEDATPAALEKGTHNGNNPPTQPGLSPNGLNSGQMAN
Nature of the series: Inhibition of mouse NTCP-mediated [3H]-TCA uptake expressed in human HepG2 cells in presence of human serum. Format: cell-based.

Series [10] addresses T2, Hepatic sodium/bile acid cotransporter. Nature of the series: Inhibition of mouse NTCP-mediated [3H]-TCA uptake expressed in human HepG2 cells in presence of mouse serum. The class given is cell-based.
The nature of series [11]: Stability in human liver microsomes assessed as half life at 1 uM preincubated for 5 mins followed by NADPH addition and measured upto 60 mins by LC-MS analysis. Format: ADME, Microsome. As to conditions: time 65 min.
Series [12] can be described thus: Stability in human liver microsomes assessed as intrinsic clearance at 1 uM preincubated for 5 mins followed by NADPH addition and measured upto 60 mins by LC-MS analysis. Format: ADME, Microsome. As to conditions: time 65 min, read-out: CLH.
Series [13] can be described thus: Half life in ip dosed C57B/L mouse by LC/MS analysis. Format: ADME, organism-based. As to conditions: in vivo.
A short description of series [14]: Bioavailability in ip dosed C57B/L mouse by LC/MS analysis. The class given is ADME, organism-based. As to conditions: in vivo.
The nature of series [15]: Oral bioavailability in C57B/L mouse by LC/MS analysis. The class given is ADME, organism-based. As to conditions: in vivo.
The subject of series [16] is Mus musculus. Nature of the series: Effect on human NTCP knock-in C57B/L mouse assessed as increase in total bile acid level at 50 mg/kg, ip administered twice daily for 3 days. Format: functional, organism-based. As to conditions: time 3.0 day.
Series [17] relates to Mus musculus. Nature of the series: Effect on wild-type C57B/L mouse assessed as increase in total bile acid level at 50 mg/kg, ip administered twice daily for 3 days. Format: functional, organism-based. As to conditions: time 3.0 day.
Series [18] is described as follows: Toxicity in C57B/L mouse assessed as effect on ALT level at 50 mg/kg, ip administered twice daily for 3 days. The class given is organism-based. As to conditions: in vivo, 72 h, time 3 day.
Series [19] can be described thus: Toxicity in C57B/L mouse assessed as effect on body weight at 50 mg/kg, ip administered twice daily for 3 days. The class given is organism-based. As to conditions: in vivo, 72 h, time 3 day.

Take `C[C@@H]1CCC(=O)NC(C(=O)NCCS(=O)(=O)O)CNC(=O)CC[C@@H](C)[C@H]2CC[C@H]3[C@@H]4[C@@H](O)C[C@@H]5C[C@@H](CC[C@]5(C)[C@H]4CC[C@]23C)n2cc(nn2)CO[C@@H]2CC[C@@]3(C)[C@@H](C2)C[C@H](O)[C@@H]2[C@@H]3CC[C@]3(C)[C@@H]1CC[C@@H]23` (stereo partly specified): the half-maximal inhibitory concentration (IC50) (as a rule, the concentration that inhibits the measured activity by half) in the series with Hepatitis B virus was 178 nM; in series [3], 54 nM; in series [4], 81.5 nM; in series [5], 23.5 nM. Further, the half-life (in general, how long it takes for the measured level to halve) at 1 µM in series [1] stood at 0.929 h; in series [11], 1.89 h. For the same compound, the values for the microsomal CLint at 1 µM in [2] and in series [12] were 12 µL/min/mg and 6.1 µL/min/mg, respectively. For the same compound, the fraction unbound in [6] and in series [7] was 0.01 throughout. For the same compound, the figures for the “inhibition (INH)” value in [8], in series [9] and in series [10] were “Active”, “Not Active” and “Not Active”, respectively. Further, the inhibition result with HepG2 was “Active”. Further, in series [13], the half-life was 1.6 h. The bioavailability (usually the share of a dose that reaches the circulation, judged against a reference dose that is usually intravenous) in series [14] was 32%; in series [15], 1.3%. Besides, in the series with Mus musculus [16], the outcome was Active. The result with Mus musculus [17] was inactive. Also, the Activity result in series [18] and in [19] was “Non-Toxic” in each case.

The values are drawn from ChEMBL document CHEMBL4834431, “Design of Dimeric Bile Acid Derivatives as Potent and Selective Human NTCP Inhibitors” (J Med Chem, 2021).
